Measurements published in patent US8148431B2, “Osteogenesis promoter containing β-cryptoxanthin as the active ingredient” (Kemin Health, L.C., priority 2002, dated 2012).
Marks after values point to notes of the source that are not given here.

Assays:
[1] = system: diaphysis tissue of the femur (cortical bone); experiment: Bone calcium level in cultured femoral diaphysis tissue pieces; format: cell-based, Wistar male rats; settings: for Bone calcium level: diaphysis tissue, mean ± SE
Description: (§1) The femurs were extracted from rats (Wistar male rats; 4 to 5 weeks old) (purchased from Japan SLC Co., Ltd. and fed with solid Oriental yeast (MF)) under anesthesia with ether under a germfree condition. The femurs were each washed with 0.25 M sucrose solution, and then divided into the diaphysis (cortical bone) and metaphysis (cancellous bone). The bone tissue pieces were cultured in a culture medium (Dulbecco's modified culture medium containing 5% of glucose; serum-free medium) containing. β-cryptoxanthin, etc. at […] in an incubator filled with 5% CO2-95% air for 48 hours. β-cryptoxanthin used was “β-cryptoxanthin” of Extrasynthase Co., cycloheximide used was “Cycloheximide” of Sigma Co. Ltd., β-carotene was “β-carotene” of Sigma ? , xanthine was “Xanthine” of Sigma Co, Ltd., parathormone was “Parathormone” of Sigma Co. Ltd. and prostaglandin E2 was “Prostaglandin E2” of Sigma Co. Ltd. In the control, only the culture medium was used without β-cryptoxanthin or the like.
(§2) Bone calcium level in the bone tissue was determined. After the culture in the incubator, the tissue pieces were washed with 0.25 M sucrose solution and dried and then the bone was weighed. Then concentrated nitric acid was added to the tissue pieces. After the incineration at 120° C. for 12 hours, the bone calcium level was determined with an atomic absorption photometer (“Perkin-Elmer 303” of Perkin-Elmer Co.).
(§3) The bone component-increasing effect of β-cryptoxanthin was examined. The diaphysis and metaphysis tissue of the femur was cultured in the above-described culture medium containing β-cryptoxanthin (10^−5 to 10^−5 M) for 48 hours. Calcium level in the bone tissue, alkaline phosphatase activity (enzyme for accelerating the bone calcification) and the amount of deoxyribonucleic acid (DNA; index of number of cells in the bone tissue) were determined by the same methods as in Example 1. In each test group, the determination vas conducted 6 to 8 times and the results were represented by the average value and the standard error. The significant difference was determined by Student's t-test. The result was compared with that of the control. When P value was not higher than 0.01 (**) or not higher than 0.05 (*), the results were statistically significant.

[2] = system: metaphysis tissue of the femur (cancellous bone); experiment: Bone calcium level in cultured femoral metaphysis tissue pieces; format: cell-based, Wistar male rats; settings: for Bone calcium level: metaphysis tissue, mean ± SE
Description: as §1, §2
as §3, with “The diaphysis and metaphysis tissue of the femur was cultured in the above-described culture medium containing β-cryptoxanthin (10^−5 to 10^−5 M) for 48 hours.” left out

[3] = system: metaphysis tissue of the femur; experiment: Bone resorption (PTH or prostaglandin E2): bone calcium level in cultured metaphysis tissue; format: cell-based, Wistar male rats
Description: as §1, §2
The bone mineral dissolution-inhibiting effect of β-cryptoxanthin was examined. […] PTH also has a pathophysiologic role on the expression of osteoporosis caused by the aging. It is known that prostaglandin E2 also causes physiologic bone mineral dissolution. The diaphysis or metaphysis tissue of the femur was cultured in the presence of 10^−7 M PTH or 10^−5 M prostaglandin E2 for 48 hours and then calcium level in the bone tissue was determined. In another experiment, the culture was conducted in the same manner as that described above in the coexistence of them and β-cryptoxanthin (10^−8 M to 10^−6 M) and then calcium level in the bone tissue was determined. In each test group, the determination was conducted 6 to 8 times and the results were represented by the average value and the standard error. The significant difference was determined by Student's t-test. The result was compared with that of the control. When P value was not higher than 0.01 (*) as compared with the control or it is not higher than 0.1 (#) as compared with that of prostaglandin E2, the results were statistically significant.

[4] = system: rats, femoral metaphysis tissue; experiment: Oral administration to rats: bone DNA level in metaphysis tissue; format: in vivo, Wistar male rats; settings: for Bone DNA level: metaphysis tissue
Description: DNA level was determined as an index of the number of cells in the bone tissue. After the culture in an incubator, the tissue pieces were washed with 0.25 M sucrose solution and then the wet weight of them was determined. They were pulverized in 4 ml of 0.1 N NaOH. After the osmosis at 4° C. for 24 hours, the liquid mixture was centrifuged. The supernatant was taken as the sample and determined by a method of Ceriotti et al. (J. Biol. Chem., 241; 34-77, 1951). Namely, 1 ml of concentrated hydrochloric acid and 1 ml of 0.04% indole solution were added to 2 ml of the sample and then the resultant mixture was heated to 100° C. in boiling water. After quenching followed by the extraction with 4 ml of chloroform, the chloroform layer was taken to determine bone DNA level with a spectrophotometer (490 nm).
A solution of β-cryptoxanthin in corn oil having one of three kinds of concentration (10, 25 and 50 μg/ml corn oil) was orally administered to rats (Wistar male rats; 4 to 5 weeks old) in an amount/100 g body weight with a probe once a day for 7 days. The rats were sacrificed 24 hours after the final administration. The femurs were excised. The muscles, etc. were taken out and each femur was divided into diaphysis and metaphysis to determine the bone components.
Tests were conducted to examine whether the bone components are increased by the oral administration of β-cryptoxanthin to rats or not. β-cryptoxanthin was administered for 7 days (10, 25 or 50 μg/100 g body weight/day) and then calcium level in the bone tissue, determination of alkaline phosphatase activity (enzyme for the acceleration of the calcification of bones) and the amount of deoxyribonucleic acid (DNA: index of the number of the cells in the bone tissue) were determined by the same methods as those in Example 1. In each test group, the determination was conducted 6 times and the results were represented by the average value and the standard error. The significant difference was determined by Student's t-test. The result was compared with that of the control. When P value was not higher than 0.01 (*) as compared with the control, the results were statistically significant.

[5] = 10^−8 to 10^−5 M, 48 h culture, vs control
[6] = Table 2 (protein synthesis inhibitor experiment), 10^−6 M (each agent), n=6
[7] = β-cryptoxanthin 10^−6 M with cycloheximide

CC1=C(/C=C/C(C)=C/C=C/C(C)=C/C=C/C=C(C)/C=C/C=C(C)/C=C/C2=C(C)C[C@@H](O)CC2(C)C)C(C)(C)CCC1 [β-cryptoxanthin]
Effect on calcium level in the diaphysis tissue (in words) [1, 5]: significant increase | Bone calcium level [1, 6]: 275.1 ± 4.50* mg/g dry weight | Bone calcium level ([1]; 10^−5 M, 48 h culture): 291.7 ± 2.29** mg/g dry weight | Bone calcium level ([1]; 10^−6 M, 48 h culture): 272.2 ± 3.15** mg/g dry weight | Bone calcium level ([1]; 10^−7 M, 48 h culture): 269.9 ± 6.26** mg/g dry weight | Bone calcium level ([1]; 10^−8 M, 48 h culture): 249.6 ± 3.33** mg/g dry weight | Calcium level in diaphysis tissue increased by β-cryptoxanthin: change in the presence of cycloheximide (in words) [1, 7]: significantly lowered | Effect on calcium level in the metaphysis tissue (in words) [2, 5]: significant increase | Bone calcium level [2, 6]: 220.0 ± 3.25* mg/g dry weight | Bone calcium level ([2]; 10^−5 M, 48 h culture): 213.5 ± 5.59** mg/g dry weight | Bone calcium level ([2]; 10^−6 M, 48 h culture): 216.8 ± 2.84** mg/g dry weight | Bone calcium level ([2]; 10^−7 M, 48 h culture): 223.6 ± 9.27** mg/g dry weight | Bone calcium level ([2]; 10^−8 M, 48 h culture): 204.7 ± 6.40** mg/g dry weight | Calcium level in metaphysis tissue increased by β-cryptoxanthin: change in the presence of cycloheximide (in words) [2, 7]: significantly lowered | Control of prostaglandin E2-caused reduction of calcium level in the bone tissue (in words) ([3]; metaphysis tissue, β-cryptoxanthin 10^−5 to 10^−6 M (so in the source) with prostaglandin E2 10^−5 M): completely controlled | Control of PTH-caused reduction of calcium level in the metaphysis tissue (in words) ([3]; β-cryptoxanthin 10^−8 to 10^−6 M in the presence of PTH): significantly controlled | Effect on DNA in the bone tissue, metaphysis, after oral administration (in words) ([4]; 10, 25 or 50 μg/100 g body weight/day, 7 days): significantly increased | Bone DNA level ([4]; oral 10 μg/100 g body weight/day for 7 days): 4.10 ± 0.24* mg/g bone wet weight | Bone DNA level ([4]; oral 25 μg/100 g body weight/day for 7 days): 4.25 ± 0.21* mg/g bone wet weight | Bone DNA level ([4]; oral 50 μg/100 g body weight/day for 7 days): 4.01 ± 0.18* mg/g bone wet weight
